According to US20190216089A1, “COMPOUNDED HERBICIDAL COMPOSITION CONTAINING SHUANGZUOCAOTONG AND METHOD OF USING THE SAME” (priority 2016, published 2019):

Experiments:
Capsella bursa-pastoris = test: Pot-culture greenhouse foliage treatment, fresh weight inhibition (Gowing method); assay type: in vivo; conditions: foliage spray
Method: (§1) The above weeds were cultivated by a pot culture method. […] Full and uniform weed seeds were selected, soaked in warm water at 25° C. for 6 hours, and germinated in a 28° C. biochemical incubator (darkness). […] A certain amount of water was added to the enamel pan regularly to keep the soil moist.
(§2) Since these several agents were soluble in acetone, any two TCs were dissolved in acetone, and diluted with an aqueous solution containing 0.1% emulsifier T-80. The dilution was performed as required.
(§3) A ratio of glufosinate ammonium or glyphosate and shuangzuocaotong and amounts thereof in each group depends on the characteristics and toxicity of the two agents, as well as the main application purpose of a corresponding formulation. Glyphosate is a non-selective herbicide and is absorbed by foliage and translocated to various parts of the plant, which is different from the mechanism of action of glufosinate ammonium, i.e., killing roots. […] The control spectrum of Shuangzuocaotong is complementary to that of glyphosate or that of glufosinate ammonium to some extent. […] Based on the pre-tests in this study, the doses of glyphosate, glufosinate ammonium, and Shuangzuocaotong applied alone and in combination were shown in the Table 1 and Table 2, and a total 15 groups were designed, respectively. Water containing the solvent and emulsifying agent same with the above groups but free of the agents was used as a blank control.
(§4) 3 pots with 20 weed seeds per pot were treated in one treatment with […] per treatment, that is, a total of 60 weeds were treated in one treatment.
(§5) The agents were used for only once in the experiment. In the stage of weeds with 2 leaves and 1 core, the weeds were thinned out to maintain 15 weeds per pot and 45 weeds for each treatment, then continued to be cultured until the four true leaves of Descurainia sophia and Capsella bursa-pastoris emerged, and treated.
(§6) The well-cultured weeds were evenly placed on a platform with an area of 0.5 m^2, and a solution of agents was sprayed on the foliage thereof by the 3WP-2000-type walking spray tower at a dosage of 30 kg/ha and at a spray pressure of 0.3 MPa. After all the solution was sprayed, the valve was closed. After 30 seconds, the door of the spray tower was opened, and the nutritional bowl was taken out. Then the valve was opened, and the spray tube was cleaned by spraying 50 ml of water.
(§7) A pot-culture method was employed. For the cultivation of weeds, please refer to the Section 1.1, and “Pesticide guidelines for laboratory bioactivity tests—herbicides”. As to a method for applying agents, please refer to the section 2.3.2, that is, a method for foliage treatment was employed.
(§8) A method for investigating absolute number was employed, wherein whole seedlings of survival weeds were cut off with a blade along the soil surface, and the fresh weight of the weeds was weighed with an analytical balance. For dead weeds, the fresh weight thereof was zero.
(§9) The investigation was performed after 20 days of the treatment for only once.

Descurainia Sophia = test: as above; assay type: in vivo; conditions: foliage spray
Method: as §1, §2, §3, §4, §5, §6, §7, §8, §9

[1] = dose 67.5 g/hm^2, after 20 days (Table 2)
[2] = dose 90 g/hm^2, after 20 days (Table 2)
[3] = dose 112.5 g/hm^2, after 20 days (Table 2)
[4] = dose 1125 g/hm^2, after 20 days

CP(=O)(O)CCC(N)C(=O)O.N (racemic) [Glufosinate ammonium, ammonium-DL-homoalanin-4-yl(methyl)phosphinate]
actual fresh weight inhibition rate (Capsella bursa-pastoris; dose 300 g/hm^2, after 20 days): 48.2%
actual fresh weight inhibition rate (Capsella bursa-pastoris; dose 450 g/hm^2, after 20 days): 73.2%
actual fresh weight inhibition rate (Capsella bursa-pastoris; dose 600 g/hm^2, after 20 days): 93.5%
actual fresh weight inhibition rate (Descurainia Sophia; dose 300 g/hm^2, after 20 days): 49.8%
actual fresh weight inhibition rate (Descurainia Sophia; dose 450 g/hm^2, after 20 days): 71.6%
actual fresh weight inhibition rate (Descurainia Sophia; dose 600 g/hm^2, after 20 days): 92.6%

Cc1nn(C)cc1C(=O)Oc1c(C(=O)c2ccc(C(F)(F)F)cc2S(C)(=O)=O)c(C)nn1C [Shuangzuocaotong]
actual fresh weight inhibition rate (Capsella bursa-pastoris; dose 15 g/hm^2, after 20 days): 53.2%
actual fresh weight inhibition rate (Capsella bursa-pastoris; dose 30 g/hm^2, after 20 days): 75.2%
actual fresh weight inhibition rate (Capsella bursa-pastoris; dose 45 g/hm^2, after 20 days): 91.3%
actual fresh weight inhibition rate (Capsella bursa-pastoris; [1]): 54.1%
actual fresh weight inhibition rate (Capsella bursa-pastoris; [2]): 72.4%
actual fresh weight inhibition rate (Capsella bursa-pastoris; [3]): 93.5%
actual fresh weight inhibition rate (Descurainia Sophia; dose 15 g/hm^2, after 20 days): 54.2%
actual fresh weight inhibition rate (Descurainia Sophia; dose 30 g/hm^2, after 20 days): 76.2%
actual fresh weight inhibition rate (Descurainia Sophia; dose 45 g/hm^2, after 20 days): 90.2%
actual fresh weight inhibition rate (Descurainia Sophia; [1]): 53.3%
actual fresh weight inhibition rate (Descurainia Sophia; [2]): 74.3%
actual fresh weight inhibition rate (Descurainia Sophia; [3]): 86.2%

O=C(O)CNCP(=O)(O)O [glyphosate, N-(phosphonomethyl)glycine]
actual fresh weight inhibition rate (Capsella bursa-pastoris; dose 675 g/hm^2, after 20 days): 53.2%
actual fresh weight inhibition rate (Capsella bursa-pastoris; dose 900 g/hm^2, after 20 days): 74.6%
actual fresh weight inhibition rate (Capsella bursa-pastoris; [4]): 92.4%
actual fresh weight inhibition rate (Descurainia Sophia; dose 675 g/hm^2, after 20 days): 55.2%
actual fresh weight inhibition rate (Descurainia Sophia; dose 900 g/hm^2, after 20 days): 73.1%
actual fresh weight inhibition rate (Descurainia Sophia; [4]): 91.4%
